According to article PMC11833736 (ACS Pharmacology & Translational Science, 2025):
Values joined by “and” are separate entries in the source; they are usually repeats but may differ in a detail not shown here. Equal entries are not always repeated.

Experiments:
SH-SY5Y cells [1] = test: Cytotoxicity, SRB end-point assay, dark or green light; assay type: cell-based; conditions: for EC50: kept in the dark, SRB, normoxic (21% O2)
SH-SY5Y cells [2] = test: Ru cellular uptake by ICP-MS, dark or green light; assay type: in vitro ADME; conditions: kept in the dark
Method: These surprising results led us to further investigate whether the uptake of the respective compounds plays a pivotal role in the alternation of the proliferation. […] The complex was allowed to incubate for 24 h after irradiation before the ruthenium cellular content was analyzed by ICP-MS. […] We finally decided to incubate the SH-SY5Y cells with the EC50 values obtained from the cytotoxicity experiment using the U-87MG cell, as those procedures would allow one to observe the effect of the prodrug on the healthy neuron-like cells when treated with the phototoxic compound dose. […] Overall, cellular uptake in neuron-like SH-SY5Y cells followed the same trends as those for GBM cells U-87MG in the dark, while uptake was much higher after light activation.
1 mL of SH-SY5Y cells were seeded in 12-well plates (Greiner, No. 665180; 500.000 cells per well). […] After an additional 24 h of incubation, the cells were trypsined, collected, and centrifuged. The resulting cell pellet was dissolved in 1 mL of PBS and counted via a BioRad TC20 automated cell counter. Afterward, the solution was centrifuged and washed again with PBS with subsequent centrifuging two more times. The resulting cell pellet was digested in 0.5 mL of HNO3 overnight in a hot oven (90 °C). The solution was diluted with Milli-Q water to 10 mL, and the Ru and Ca content [ppb] was measured via ICP-MS.

AChE = AChE (Electrophorus electricus, UniProt O42275); conditions: for PI: AChE, IC50 dark / IC50 green light; for IC50: read-out: IC50,D, isolated AChE, 30 min in the dark, read 35 min after DTNB addition
Description: Among all enzymes involved in transmembrane signaling, another important one is AChE. In a modified procedure (for further details, see the Experimental Section), we checked whether the ruthenium complexes were able to inhibit AChE in the dark and after light activation. The colorimetric assay used Ellman’s reagent. […] The conversion of 5,5′-dithiobis(2-nitrobenzoic acid) (DTNB) to yellow 2-nitro-5-thiobenzoate (TNB) initiated by the addition of acetylthiocholine was then detected by UV–vis spectroscopy every 5 min for a total time of […]. […] The solution was further diluted 1:50 in 50 mM Tris buffer, pH = 8 (10 μL in 490 μL), and then placed in 4.5 mL of 50 mM Tris buffer, pH = 8. […] 50 μL of the enzyme and 50 μL of the complex solution were added to a 96-well plate in triplicates. […] Meanwhile, a 10 mM solution of acetylthiocholine iodide and 10 mM DTNB was prepared. After the respective time, in each well, 5 μL of the acetylthiocholine iodide and DTNB mixture was added. The absorbance was read at a microplate Tecan reader at 410 nm every 5 min for in total 40 min.

[3] = Stability in the dark in the presence of L-glutathione (UV-vis); assay type: physicochemical; conditions: water, 37 °C, 500 μM L-glutathione, spectra after 2 and 24 h
Method: The synthesis and characterization of all three complexes have been described earlier and can be found in refs ([56]) and ([57]). In water or OptiMEM cell medium, the complexes were also previously found to be stable in the dark for at least 24 h at 37 °C. Upon blue or green light irradiation (λ = 452 or 517 nm), they are activated by photosubstitution of the thioether ligand to afford the aqua ruthenium complex and the free thioether ligand.[56] […] The UV–vis spectra were then recorded after 2 and 24 h separately. […] Additionally, we could not observe any color change, which is typical when one of the ligands is exchanged against another one.
UV–vis spectroscopy experiments were performed on a Cary 60 Varian spectrometer equipped with a temperature control set to 310 K and a magnetic stirrer. The measurements were performed in a quartz cuvette containing 3 mL of solution. […] Then, the UV–vis spectrum was recorded without the presence of GSH. After 4 min, GSH was added (0.5 mM) and UV–vis spectra were recorded directly after and after 2 and 24 h, while the vial was kept in the dark and at 37 °C.

[4] = tested on: U-87MG glioblastoma cells; test: Cytotoxicity, SRB end-point assay, dark or green light; conditions: read-out: EC50,D, kept in the dark, 24 h + 48 h incubation, normoxic (21% O2)

Sequence of AChE (O42275 24-633): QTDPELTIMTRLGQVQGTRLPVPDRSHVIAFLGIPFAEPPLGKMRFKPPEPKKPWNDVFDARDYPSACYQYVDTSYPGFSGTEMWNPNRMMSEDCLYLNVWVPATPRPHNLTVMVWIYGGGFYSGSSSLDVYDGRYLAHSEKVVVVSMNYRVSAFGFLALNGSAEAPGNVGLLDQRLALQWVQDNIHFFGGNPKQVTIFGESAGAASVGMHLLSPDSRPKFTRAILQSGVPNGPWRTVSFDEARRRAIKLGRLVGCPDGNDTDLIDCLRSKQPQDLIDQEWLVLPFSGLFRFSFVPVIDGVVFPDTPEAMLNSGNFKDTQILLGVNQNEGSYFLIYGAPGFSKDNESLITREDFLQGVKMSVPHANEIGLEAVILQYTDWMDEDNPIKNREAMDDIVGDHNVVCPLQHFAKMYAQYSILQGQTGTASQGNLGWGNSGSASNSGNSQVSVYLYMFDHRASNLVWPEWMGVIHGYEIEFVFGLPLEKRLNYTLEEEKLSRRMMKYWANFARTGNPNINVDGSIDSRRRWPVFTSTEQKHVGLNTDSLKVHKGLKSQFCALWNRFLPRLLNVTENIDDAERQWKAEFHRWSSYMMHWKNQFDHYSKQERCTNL

SMILES | concentration required to block cell growth (SH-SY5Y cells [1]; in the dark) [µM] | EC50 (SH-SY5Y cells [1]) [µM] | Ru uptake, Dark (SH-SY5Y cells [2]; 20 μM) | PI (AChE) | IC50 (AChE) [µM] | stability in the dark with GSH (UV-vis, in words) [3] | EC50 [4] | Ru uptake, Dark (SH-SY5Y cells [2]; 10 μM)
CSCCO.F[P-](F)(F)(F)(F)F.F[P-](F)(F)(F)(F)F.[Ru+2].c1ccc(-c2cccc(-c3ccccn3)n2)nc1.c1ccc2cc(-c3cc4ccccc4cn3)ncc2c1 [[2](PF6)2] | > 40 | > 100 | 1.02 ± 0.63 ng Ru/mio. cells and 1.0 ng Ru/mio. cells | >1.5 | > 15 | no isosbestic points suggesting ligand exchange were observed | 19 µM and 19.4 µM | 
CSCCO.F[P-](F)(F)(F)(F)F.F[P-](F)(F)(F)(F)F.[Ru+2].c1ccc(-c2cccc(-c3ccccn3)n2)nc1.c1ccc2cc(Nc3cc4ccccc4cn3)ncc2c1 [[3](PF6)2] |  | 34.2 |  | 2 | 9.6 | no isosbestic points suggesting ligand exchange were observed | 37 µM | 2.44 ± 0.63 ng Ru/mio. cells and 2.4 ng Ru/mio. cells
